Data reported in patent US9440957B2, “Compounds and compositions for modulating EGFR Activity” (Novartis AG, priority 2012, dated 2016).
Like-named read-outs stand apart in the source and are kept apart here.

Tests used:
H3255 (EGFR L858R) = H3255 (EGFR L858R) (Homo sapiens, UniProt P00533, L858R); experiment: EGFR target modulation in H3255 cell line (phospho-EGFR Y1173 ELISA); assay type: cell-based
Method in brief: (§1)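 Readout: luminescent pY1173-EGFR sandwich ELISA on cell lysates. Treatment: compound, 3 h, 37 °C.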

HCC827 (Del E746-A750) = HCC827 (Del E746-A750) (Homo sapiens, UniProt P00533, DEL746-750); experiment: EGFR target modulation in HCC827 cell line (phospho-EGFR Y1173 ELISA); assay type: cell-based
Procedure: EGFR Target Modulation in H1975, H3255 and HCC827 Cell Lines Tissue Culture. Cells were maintained in 10% FBS/RPMI supplemented with 100 μg/ml Penicillin/Streptomycin (Hyclone #SH30236.01). […] The cells were allowed to incubate overnight in a 37° C., 5% CO2 humidified tissue culture incubator. […] The serial diluted compounds were transferred to the plate containing cells by using a 50 nl Pin Head device (Perkin Elmer) and the cells were placed back in the incubator for 3 hours. Phospho-EGFR ([…]) Target Modulation Assay. The media was reduced to 20 ul using a Bio-Tek ELx 405 SelectTM plate washer. […] The plates were shaken at 4° C. for 20 minutes. An aliquot of 25 ul from each well was transferred to pEGFR(Y1173) ELISA plates for analysis. Phospho-EGFR ([…]) ELISA. Solid white high-binding ELISA plates (Greiner #781074) were coated with 5 ug/ml anti-EGFR capture antibody (R&D Systems #AF231) overnight in 50 mM carbonate/bicarbonate pH 9.5 buffer. Plates were blocked with 1% BSA (Sigma #A7030) in PBS for 1 hour at room temperature. Wash steps were carried out with a Bio-Tek ELx405 SelectTM using 4 cycles of 100 ul TBS-T (20 mM Tris, 137 mM NaCl, 0.05% Tween-20) per well. […] Lysis was allowed to occur for 20 minutes on ice. A 25 ul aliquot was added to each well of the blocked ELISA plate and incubated overnight at 4° C. with gentle shaking. […] After washing, 1:2,000 anti-rabbit-HRP (Cell Signaling #7074) in 0.2% BSA/TBS-T was added and incubated for 1 hour at room temperature. Chemiluminescent detection was carried out with SuperSignal ELISA Pico substrate (ThermoScientific #37069). Signal was read on EnVision plate reader using built-in UltraLUM setting. Data Analysis. Control cells treated with EGF were set to 100% maximum response. […] With these parameters, the IC50's for each compound in each cell line was calculated using non-linear curve fitting analysis.

HEKn (EGFR WT) = HEKn (EGFR WT) (Homo sapiens, UniProt P00533); experiment: EGFR target modulation in HEKn (EGFR-WT) cell line (phospho-EGFR Y1173 ELISA); assay type: cell-based; settings: value outside parentheses
Method in brief: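 Read-out was Y1173 phosphorylation, measured by chemiluminescent ELISA with anti-EGFR capture of lysates. HEKn keratinocytes (wild-type EGFR) were treated with compound for 3 h.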

H1975 (EGFR L858/T790M) = H1975 (EGFR L858/T790M) (Homo sapiens, UniProt P00533, L858R/T790M); experiment: EGFR target modulation in H1975 cell line (phospho-EGFR Y1173 ELISA); assay type: cell-based
Method in brief: as §1

EGFR(L858R/T790M) = target: T1, EGFR(L858R/T790M) (Homo sapiens, UniProt P00533, L858R/T790M); experiment: EGFR biochemical assay (HTRF), IC50 determinations
T1 construct: purchased from Carna (GST-a.a. 669-1210)
Method in brief: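 Two formats were run: compound preincubated at room temperature with enzyme and biotin-TK peptide before ATP starts the reaction, or no preincubation with enzyme added last. Reactions ran 60 min at room temperature and were stopped with EDTA. Phosphopeptide was read by HTRF (PT66K/SAXL, 1 h).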

[1] = target: human EGFR L858R (NIH/3T3 cells) (Homo sapiens, UniProt P00533, L858R); experiment: EGFR target modulation in engineered NIH/3T3 cell lines (phospho-EGFR Y1068 AlphaLISA), EGFR L858R; assay type: cell-based; settings: engineered NIH/3T3 cells, read-out: NIH3T3 IC50 (μM) EGFR (L858R)
Method in brief: (§2)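 Read-out is phospho-Y1068 AlphaLISA on cell lysates, with anti-total EGFR at 1 nM final equilibrated 1 h at room temperature. Cells were dosed 3 h with a 12-point 1:3 series starting from a 10 μM stock. Only the WT line received 50 ng/ml EGF for 5 min.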

[2] = target: human EGFR L858R/T790M (NIH/3T3 cells) (Homo sapiens, UniProt P00533, L858R/T790M); experiment: EGFR target modulation in engineered NIH/3T3 cell lines (phospho-EGFR Y1068 AlphaLISA), EGFR L858R/T790M; assay type: cell-based; settings: engineered NIH/3T3 cells, read-out: NIH3T3 IC50 (μM) EGFR (L858R/T790M)
Method in brief: as §2

[3] = target: human EGFR WT (NIH/3T3 cells, EGF-induced) (Homo sapiens, UniProt P00533); experiment: EGFR target modulation in engineered NIH/3T3 cell lines (phospho-EGFR Y1068 AlphaLISA), EGFR WT; assay type: cell-based; settings: engineered NIH/3T3 cells, read-out: NIH3T3 IC50 (μM) EGFR (WT)
Method in brief: as §2

[4] = EGFR (L858R/T790M) with 90 min pre-incubation, read-out: IC50 (μM) Column B
[5] = EGFR (L858R/T790M) with no pre-incubation, read-out: IC50 (μM) Column A

Chain of H1975 (EGFR L858/T790M) (P00533 25-1210 T790M/L858R): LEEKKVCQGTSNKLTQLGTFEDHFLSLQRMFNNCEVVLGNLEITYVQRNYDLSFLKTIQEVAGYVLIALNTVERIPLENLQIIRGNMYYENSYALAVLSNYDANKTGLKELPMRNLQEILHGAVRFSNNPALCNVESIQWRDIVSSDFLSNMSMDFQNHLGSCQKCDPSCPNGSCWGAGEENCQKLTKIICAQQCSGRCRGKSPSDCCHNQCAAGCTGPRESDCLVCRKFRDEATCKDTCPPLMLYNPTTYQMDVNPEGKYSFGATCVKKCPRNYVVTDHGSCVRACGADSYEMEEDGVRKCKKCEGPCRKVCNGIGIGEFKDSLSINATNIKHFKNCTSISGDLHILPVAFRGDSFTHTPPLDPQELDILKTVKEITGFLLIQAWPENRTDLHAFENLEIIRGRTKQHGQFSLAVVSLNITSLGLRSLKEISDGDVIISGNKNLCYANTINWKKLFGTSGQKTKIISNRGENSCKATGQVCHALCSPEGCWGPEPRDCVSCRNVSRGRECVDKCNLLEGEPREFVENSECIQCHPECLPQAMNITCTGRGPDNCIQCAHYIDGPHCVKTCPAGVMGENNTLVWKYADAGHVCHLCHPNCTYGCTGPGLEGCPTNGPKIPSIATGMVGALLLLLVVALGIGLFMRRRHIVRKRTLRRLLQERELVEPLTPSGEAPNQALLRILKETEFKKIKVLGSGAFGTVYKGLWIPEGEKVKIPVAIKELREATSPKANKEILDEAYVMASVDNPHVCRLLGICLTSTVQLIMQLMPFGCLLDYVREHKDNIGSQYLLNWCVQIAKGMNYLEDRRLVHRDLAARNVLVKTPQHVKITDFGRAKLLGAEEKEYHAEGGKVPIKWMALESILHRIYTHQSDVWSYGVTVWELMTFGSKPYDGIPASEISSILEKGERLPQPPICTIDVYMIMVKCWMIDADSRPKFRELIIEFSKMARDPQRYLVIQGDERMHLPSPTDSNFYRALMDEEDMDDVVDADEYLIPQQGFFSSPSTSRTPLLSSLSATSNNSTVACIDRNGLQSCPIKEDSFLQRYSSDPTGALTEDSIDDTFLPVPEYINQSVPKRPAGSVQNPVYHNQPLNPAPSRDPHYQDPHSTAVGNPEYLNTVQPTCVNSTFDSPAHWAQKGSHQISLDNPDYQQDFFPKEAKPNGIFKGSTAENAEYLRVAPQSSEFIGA
Chain of human EGFR L858R/T790M (NIH/3T3 cells) (P00533 25-1210 T790M/L858R): as above
Chain of HEKn (EGFR WT) (P00533 25-1210): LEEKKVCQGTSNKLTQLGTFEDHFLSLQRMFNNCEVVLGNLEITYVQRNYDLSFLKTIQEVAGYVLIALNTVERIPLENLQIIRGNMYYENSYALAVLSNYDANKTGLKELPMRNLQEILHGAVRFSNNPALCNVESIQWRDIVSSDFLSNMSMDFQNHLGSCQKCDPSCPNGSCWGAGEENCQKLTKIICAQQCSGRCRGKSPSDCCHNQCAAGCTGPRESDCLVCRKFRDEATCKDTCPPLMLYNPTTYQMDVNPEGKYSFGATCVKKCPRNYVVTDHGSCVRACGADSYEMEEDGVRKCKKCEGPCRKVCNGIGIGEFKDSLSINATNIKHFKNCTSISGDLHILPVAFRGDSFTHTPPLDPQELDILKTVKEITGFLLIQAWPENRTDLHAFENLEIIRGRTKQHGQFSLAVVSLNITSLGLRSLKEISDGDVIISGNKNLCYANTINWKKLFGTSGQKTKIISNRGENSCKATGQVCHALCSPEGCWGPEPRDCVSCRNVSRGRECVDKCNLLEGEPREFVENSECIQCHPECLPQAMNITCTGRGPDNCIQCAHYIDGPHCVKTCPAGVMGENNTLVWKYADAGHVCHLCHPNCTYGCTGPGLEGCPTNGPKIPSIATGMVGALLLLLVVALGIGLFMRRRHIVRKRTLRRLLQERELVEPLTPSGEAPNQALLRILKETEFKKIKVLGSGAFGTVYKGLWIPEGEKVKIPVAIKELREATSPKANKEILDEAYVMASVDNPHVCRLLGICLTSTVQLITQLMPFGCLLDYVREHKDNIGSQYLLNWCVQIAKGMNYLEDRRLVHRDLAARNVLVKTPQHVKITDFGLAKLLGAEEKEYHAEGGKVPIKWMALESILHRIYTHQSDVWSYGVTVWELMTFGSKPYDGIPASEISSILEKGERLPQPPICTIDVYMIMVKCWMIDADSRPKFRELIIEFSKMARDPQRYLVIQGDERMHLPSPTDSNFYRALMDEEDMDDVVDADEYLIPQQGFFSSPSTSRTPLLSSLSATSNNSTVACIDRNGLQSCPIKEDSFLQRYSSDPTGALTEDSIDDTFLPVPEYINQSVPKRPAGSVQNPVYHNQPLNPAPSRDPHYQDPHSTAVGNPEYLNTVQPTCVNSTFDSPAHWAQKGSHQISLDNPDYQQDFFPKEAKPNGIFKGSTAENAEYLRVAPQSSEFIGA
Chain of human EGFR WT (NIH/3T3 cells, EGF-induced) (P00533 25-1210): as above

IC50 (H3255 (EGFR L858R)) [nM]	IC50 (HCC827 (Del E746-A750)) [nM]	IC50 (HEKn (EGFR WT)) [nM]	IC50 (H1975 (EGFR L858/T790M)) [nM]	IC50 (EGFR(L858R/T790M); [4]) [µM]	IC50 (EGFR(L858R/T790M); [5]) [µM]	IC50 [1] [µM]	IC50 [2] [µM]	IC50 [3] [µM]	SMILES
10	4	194	9	< 0.001	0.009				O=C(Nc1nc2cccc(Cl)c2n1[C@@H]1CCCCN(C(=O)/C=C/CN2CCCC2)C1)c1ccnnc1 [Example 3-8]
12	5	590	7	< 0.001	0.008				Cc1cc(C(=O)Nc2nc3cccc(C)c3n2[C@@H]2CCCCN(C(=O)/C=C/CN3CCCC3)C2)ccn1 [Example 3-9]
29		370	10	< 0.001	0.007	0.007	0.007	0.187	Cc1cc(C(=O)Nc2nc3cccc(C)c3n2[C@@H]2CCCCN(C(=O)/C=C/CN(C)C)C2)cnn1 [Example 17-82]
72		2330	29	0.001	0.02	0.022	0.027	0.6	COc1cccc2nc(NC(=O)c3ccnnc3)n([C@@H]3CCCCN(C(=O)/C=C/CN(C)C)C3)c12 [Example 17-83]
137		1660	37	0.003	0.049	0.04	0.028	1.94	C=CC(=O)N1CCCC[C@@H](n2c(NC(=O)c3ccnnc3)nc3cccc(OC)c32)C1 [Example 17-84]
111		2080	38	0.003	0.038	0.043	0.02	0.6	CC(C)Oc1cccc2nc(NC(=O)c3ccnnc3)n([C@@H]3CCCCN(C(=O)/C=C/CN(C)C)C3)c12 [Example 17-85]
57		710	12	0.004	0.04	0.03	0.008	0.45	C=CC(=O)N1CCCC[C@@H](n2c(NC(=O)c3ccnnc3)nc3cccc(OC(C)C)c32)C1 [Example 17-86]
< 1		37	2	< 0.001	< 0.001	< 0.001	< 0.001	0.013	Cc1cccc2nc(NC(=O)c3ccnnc3)n([C@@H]3CCCCN(C(=O)C#CCN(C)C)C3)c12 [Example 17-87]
2		45	1	< 0.001	0.002	0.001	< 0.001	0.031	C=CC(=O)N1CCCC[C@@H](n2c(NC(=O)c3ccnnc3)nc3cccc(C)c32)C1 [Example 17-94]
3		127	3	< 0.001	0.002	0.002	0.002	0.026	Cc1cccc2nc(NC(=O)c3ccnnc3)n([C@@H]3CCCCN(C(=O)/C=C/CN(C)C)C3)c12 [Example 17-95]
44		> 10000	14	0.005	0.048	0.306	0.021	> 10	C=CC(=O)N1CCC[C@@H](n2c(NC(=O)c3ccccc3)nc3cccc(C)c32)C1 [Example 17-108]
43		1680	14	< 0.001	0.025	0.032	0.028	0.88	C=CC(=O)N1CCC[C@@H](n2c(NC(=O)c3ccnc(C)c3)nc3cccc(C)c32)C1 [Example 17-109]
8		203	< 1	< 0.001	0.004	0.003	0.001	0.047	C=CC(=O)N1CCCC[C@@H](n2c(NC(=O)c3ccccc3)nc3cc(CN4CCCC4)cc(C)c32)C1 [Example 17-111]
4		100	< 1	< 0.001	0.001	0.002	< 0.001	0.143	C=CC(=O)N1CCCC[C@@H](n2c(NC(=O)c3ccccc3)nc3cccc(CN4CCC(O)C4)c32)C1 (some centres unmarked) [Example 17-114]
> 10000		> 10000	640	0.005	0.68	0.156	0.005	> 10	C=CC(=O)N1CCC[C@@H](n2c(NC(=O)c3cccc(C(F)(F)F)c3)nc3cc(CN4CCCCC4)ccc32)C1 [Example 17-118]
490		> 10000	22	0.008	0.2	0.271	0.023	> 10	C=CC(=O)N1CCC[C@@H](n2c(NC(=O)c3cccc(C(F)(F)F)c3)nc3cc(COCCOC)ccc32)C1 [Example 17-124]
4		28	1	< 0.001	0.002	0.002	0.002	0.045	C=CC(=O)N1CCCC[C@@H](n2c(NC(=O)c3ccccc3)nc3cccc(CN(C)C)c32)C1 [Example 17-129]
108		2850	9	0.001	0.041	0.047	0.012	2.87	C=CC(=O)N1CCCC[C@@H](n2c(NC(=O)c3ccccc3)nc3cccc(CN4CCS(=O)(=O)CC4)c32)C1 [Example 17-132]
640		> 10000	105	0.01	0.32	0.34	0.09	5.2	Cc1noc(-c2cccc3nc(NC(=O)c4ccccc4)n(C4COCCN(C(=O)/C=C/CN(C)C)C4)c23)n1 (centres unmarked) [Example 17-142]
9		269	8	< 0.001	0.008	0.006	0.009	0.281	C=CC(=O)N1CCCC[C@@H](n2c(NC(=O)c3cnnc(C)c3)nc3cc(CN4CCCC4)cc(C)c32)C1 [Example 17-161]
2020		> 10000	168	0.01	0.218	0.226	0.026	> 10	C=CC(=O)N1CCC[C@@H](n2c(NC(=O)c3cccc(C(F)(F)F)c3)nc3cc(C(N)=O)ccc32)C1 [Example 19, (R)-1-(1-acryloylpiperidin-3-yl)-2-(3-(trifluoromethyl)benzamido)-1H-benzo[d]imidazole-5-carboxamide]
